Experimental data from publication PMC5486078, “Molecular Cloning and Functional Characterization of a Hexokinase from the Oriental River Prawn Macrobrachium nipponense in Response to Hypoxia” (International Journal of Molecular Sciences, 2017).
Where two headings read alike, the source gives them in different places.

Assays:
[1] = target: T1, rMnHK (recombinant M. nipponense hexokinase) (Macrobrachium nipponense, UniProt A0A220NLA7); assay: enzyme inhibition, Lineweaver-Burk plot; format: biochemical
T1 construct: pET-28a, His tag, E. coli BL21 (DE3); about 70 kDa on SDS-PAGE
T1 sequence (A0A220NLA7 1-449): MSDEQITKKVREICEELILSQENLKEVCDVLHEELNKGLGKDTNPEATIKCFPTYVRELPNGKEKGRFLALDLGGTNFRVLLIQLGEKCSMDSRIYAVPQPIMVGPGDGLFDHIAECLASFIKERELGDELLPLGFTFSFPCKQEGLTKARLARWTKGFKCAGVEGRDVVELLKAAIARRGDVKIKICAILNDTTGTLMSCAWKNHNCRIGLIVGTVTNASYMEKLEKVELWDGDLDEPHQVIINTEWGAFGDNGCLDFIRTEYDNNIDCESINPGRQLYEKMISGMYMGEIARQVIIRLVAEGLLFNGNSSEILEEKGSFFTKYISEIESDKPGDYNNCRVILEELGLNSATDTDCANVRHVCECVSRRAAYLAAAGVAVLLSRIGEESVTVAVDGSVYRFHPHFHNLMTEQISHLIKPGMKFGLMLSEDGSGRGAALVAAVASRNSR
Source text: enzyme inhibition, Lineweaver-Burk plot on rMnHK (recombinant M. nipponense hexokinase)

[2] = substrate: Nc1ncnc2c1ncn2[C@@H]1O[C@H](COP(=O)(O)OP(=O)(O)OP(=O)(O)O)[C@@H](O)[C@H]1O; assay: steady-state kinetics, Michaelis-Menten / Lineweaver-Burk plot; format: biochemical, Macrobrachium nipponense; details: co-substrate hexose; assay pH and temperature not stated

Nc1ncnc2c1ncn2[C@@H]1O[C@H](COP(=O)(O)OP(=O)(O)O)[C@@H](O)[C@H]1O [ADP] was tested. Which Ki ([1]; read-out: Inhibitor Studies (Ki) (mM) / ADP) did it give?
The Ki was 0.76 mM.

How did the Ki ([1]; read-out: Inhibitor Studies (Ki) (mM) / PPi) turn out when O=P(O)(O)OP(=O)(O)O [PPi] was run?
Its Ki is 0.011 mM.

B1: rMnHK (recombinant M. nipponense hexokinase) (Macrobrachium nipponense) (protein)
chain: T1 sequence (A0A220NLA7 1-449)
notes: pET-28a, His tag, E. coli BL21 (DE3); about 70 kDa on SDS-PAGE
B1 was tested. Which Km [2] did it give?
The Km was 880 ± 600 µM.
